The results in this text go back to ChEMBL document CHEMBL5303304, “EUbOPEN Chemogenomics Library - IncuCyte” (2023).

Holding throughout (assay type): toxicity, cell-based
One data set relates to HEK-293T. Kind of data set: Incucyte cell viability with HEK293T. The following applies: human, 10 µM, compound concentration 10 uM.
A further data set deals with Fibroblast. Kind of data set: Incucyte cell viability with human fibroblast. The following applies: 10 µM, compound concentration 10 uM.
Another data set deals with U2OS. Kind of data set: Incucyte cell viability with U2OS. The conditions noted are these: human, 10 µM, compound concentration 10 uM.
Also: unitless GR value; below 1 slowed growth and below 0 cell loss.

Regarding `C[C@@H](C(N)=O)[C@H](N)c1nc2cc(C(C)(C)C)ccc2[nH]1` [PF-06305591], the “Growth Rate” value is 0.51 in the data set on HEK-293T (6 h, replicate number 2); 0.9 in the data set on HEK-293T (12 h, replicate number 2); 0.91 with HEK-293T (18 h, replicate number 2); 0.94 with HEK-293T (24 h, replicate number 2); 0.3 in the data set with Fibroblast (0 h, replicate number 1); -0.98 in the data set with Fibroblast (6 h, replicate number 1). The “Growth Rate” value with Fibroblast (12 h, replicate number 1) is -0.52; in the data set on Fibroblast (18 h, replicate number 2), 0.77; in the data set on U2OS (0 h, replicate number 1), -0.1; in the data set with U2OS (0 h, replicate number 2), -0.8; with U2OS (12 h, replicate number 1), 0.69; in the data set on U2OS (12 h, replicate number 2), 0.86. The “Growth Rate” value in the data set with U2OS (18 h, replicate number 2) was determined as 0.91; in the data set on U2OS (24 h, replicate number 1) it was 0.95; in the data set with U2OS (24 h, replicate number 2) it was 0.99.
Regarding `Cl.Cl.N=C(N)NCCC[C@H](NC(=O)CC1(CC(=O)N2CCN(C3c4ccccc4NC(=O)c4ccccc43)CC2)CCCC1)C(=O)NCCn1c(=O)n(-c2ccccc2)n(-c2ccccc2)c1=O` (stereo not given in full), the “Growth Rate” value with HEK-293T (0 h, replicate number 2) is -0.2; in the data set with HEK-293T (6 h, replicate number 1), 0.47; in the data set with Fibroblast (0 h, replicate number 2) it was 0.97; with Fibroblast (6 h, replicate number 1), 0.27; in the data set with Fibroblast (12 h, replicate number 1), 0.91; in the data set on Fibroblast (18 h, replicate number 1), 0.59. In addition, the “Growth Rate” value with Fibroblast (24 h, replicate number 1) amounted to 0.6; with U2OS (0 h, replicate number 1), 0.38; in the data set with U2OS (0 h, replicate number 2), 0.1; in the data set with U2OS (6 h, replicate number 1) it was 0.65; with U2OS (6 h, replicate number 2), 0.78; with U2OS (12 h, replicate number 1), 0.69. The “Growth Rate” value with U2OS (12 h, replicate number 2) was found to be 0.78; with U2OS (18 h, replicate number 1), 0.83; in the data set on U2OS (18 h, replicate number 2) it was 0.87; in the data set with U2OS (24 h, replicate number 1), 0.73; in the data set on U2OS (24 h, replicate number 2), 0.99.
Consider `CCS(=O)(=O)c1ccc(OC)c(Nc2ncc(-c3cccc(F)c3)o2)c1` [GW621970X], for which the “Growth Rate” value is listed as -0.48 in the data set with HEK-293T (6 h, replicate number 1); -0.44 in the data set on HEK-293T (6 h, replicate number 2); -0.12 in the data set on HEK-293T (12 h, replicate number 1); 0.2 in the data set on HEK-293T (12 h, replicate number 2); 0.22 in the data set on HEK-293T (18 h, replicate number 1); 0.63 in the data set with HEK-293T (18 h, replicate number 2). The “Growth Rate” value with HEK-293T (24 h, replicate number 1) is 0.43; in the data set with HEK-293T (24 h, replicate number 2), 0.8; in the data set on Fibroblast (0 h, replicate number 2) it was -0.51; in the data set with Fibroblast (6 h, replicate number 1), -0.04; in the data set on Fibroblast (6 h, replicate number 2), 0.01; in the data set with Fibroblast (12 h, replicate number 1), 0.4. The “Growth Rate” value was determined as 0.24 in the data set on Fibroblast (12 h, replicate number 2); 0.72 with Fibroblast (18 h, replicate number 1); 0.7 with Fibroblast (18 h, replicate number 2); 0.73 in the data set on Fibroblast (24 h, replicate number 1); 0.99 with Fibroblast (24 h, replicate number 2); 0.74 with U2OS (6 h, replicate number 2). Besides, the “Growth Rate” value in the data set with U2OS (12 h, replicate number 2) came to 0.84; in the data set on U2OS (18 h, replicate number 1) it was 0.79; in the data set with U2OS (18 h, replicate number 2), 0.86; in the data set on U2OS (24 h, replicate number 1), 0.94; in the data set with U2OS (24 h, replicate number 2), 0.77.
As for `CS(=O)(=O)O.C[C@H](NC(=O)c1cnc2n1[C@](C)(Cc1ccc(C#N)cc1)C(=O)N2c1cc(Cl)c(F)c(Cl)c1)C(=O)NC1(c2ccccn2)CC1`, the “Growth Rate” value with HEK-293T (0 h, replicate number 1) is listed as 0.44; with HEK-293T (0 h, replicate number 2) it was 0.94; in the data set with Fibroblast (0 h, replicate number 1), -1; with Fibroblast (6 h, replicate number 1), 0.73; in the data set with Fibroblast (6 h, replicate number 2), 0.85; with Fibroblast (12 h, replicate number 2), 0.94. The “Growth Rate” value was 0.98 with Fibroblast (18 h, replicate number 1); 0.61 in the data set on Fibroblast (18 h, replicate number 2); 0.73 with Fibroblast (24 h, replicate number 1); 0.87 in the data set on Fibroblast (24 h, replicate number 2); -0.46 with U2OS (0 h, replicate number 2); 0.8 in the data set on U2OS (6 h, replicate number 1). The “Growth Rate” value is given as 0.54 in the data set on U2OS (6 h, replicate number 2); 0.92 in the data set with U2OS (12 h, replicate number 1); 0.49 with U2OS (12 h, replicate number 2); 0.98 with U2OS (18 h, replicate number 1); 0.81 in the data set with U2OS (18 h, replicate number 2); 0.82 in the data set on U2OS (24 h, replicate number 1).
For the compound `Cc1c(-c2cc(-c3ccccc3Cl)no2)cnn1C1CCNCC1.Cl`, the “Growth Rate” value with HEK-293T (6 h, replicate number 1) is reported as -0.95; in the data set with HEK-293T (6 h, replicate number 2), -0.85; with HEK-293T (12 h, replicate number 1), -0.84; in the data set with HEK-293T (12 h, replicate number 2) it was -0.43; in the data set on HEK-293T (18 h, replicate number 1), -0.72; in the data set with HEK-293T (18 h, replicate number 2), -0.18. The “Growth Rate” value is reported as -0.68 in the data set with HEK-293T (24 h, replicate number 1); -0.15 with HEK-293T (24 h, replicate number 2); 0.68 in the data set on Fibroblast (0 h, replicate number 1); 0.11 in the data set with Fibroblast (6 h, replicate number 1); -1 with Fibroblast (6 h, replicate number 2); -1 in the data set on Fibroblast (12 h, replicate number 1). In addition, the “Growth Rate” value in the data set with Fibroblast (12 h, replicate number 2) is given as -0.55; with Fibroblast (18 h, replicate number 2), -0.4; with Fibroblast (24 h, replicate number 1), 0.83; in the data set with Fibroblast (24 h, replicate number 2) it was -0.36; in the data set on U2OS (0 h, replicate number 2) it was -1; with U2OS (6 h, replicate number 1), 0.45. The “Growth Rate” value was determined as 0.01 in the data set with U2OS (6 h, replicate number 2); 0.76 in the data set on U2OS (12 h, replicate number 1); 0.66 in the data set on U2OS (12 h, replicate number 2); 0.87 with U2OS (18 h, replicate number 1); 0.68 in the data set with U2OS (18 h, replicate number 2); 0.89 with U2OS (24 h, replicate number 1). The “Growth Rate” value with U2OS (24 h, replicate number 2) is reported as 0.75.
`CN1C2CCCC1CC(Nc1ccccc1Br)C2` (stereo not given): the “Growth Rate” value in the data set with HEK-293T (0 h, replicate number 1) is recorded as 0.87; in the data set with HEK-293T (6 h, replicate number 2), 0.99; in the data set on HEK-293T (24 h, replicate number 2), 0.99; with Fibroblast (0 h, replicate number 1) it was 0.86; in the data set on Fibroblast (0 h, replicate number 2) it was 0.67; with Fibroblast (6 h, replicate number 1), -0.98. Further, the “Growth Rate” value is given as -0.45 in the data set with Fibroblast (6 h, replicate number 2); 0.42 in the data set with Fibroblast (12 h, replicate number 1); 0.88 with Fibroblast (12 h, replicate number 2); 0.95 with Fibroblast (18 h, replicate number 2); 0.92 with Fibroblast (24 h, replicate number 2); -0.9 with U2OS (0 h, replicate number 2).
For `Cn1c(=O)n(CCCO)c(=O)c2c1nc(Oc1cccc(Cl)c1)n2Cc1ccc(Cl)cc1`, the “Growth Rate” value in the data set with HEK-293T (0 h, replicate number 2) is listed as 0.3; with HEK-293T (6 h, replicate number 2), 0.26; with HEK-293T (12 h, replicate number 2) it was 0.77; with HEK-293T (18 h, replicate number 2), 0.84; in the data set on HEK-293T (24 h, replicate number 2) it was 0.83; with Fibroblast (6 h, replicate number 2), -0.99. Further, the “Growth Rate” value is recorded as 0.66 in the data set with Fibroblast (12 h, replicate number 2); 0.33 with Fibroblast (18 h, replicate number 1); 0.85 in the data set with Fibroblast (24 h, replicate number 2); 0.38 with U2OS (6 h, replicate number 1); 0.93 with U2OS (12 h, replicate number 2); 0.86 with U2OS (18 h, replicate number 1). Moreover, the “Growth Rate” value amounted to 0.82 with U2OS (18 h, replicate number 2); 0.94 in the data set with U2OS (24 h, replicate number 1); 0.89 in the data set with U2OS (24 h, replicate number 2).
